Assay results as given in ChEMBL document CHEMBL4043241, “Development and evaluation of 4-(pyrrolidin-3-yl)benzonitrile derivatives as inhibitors of lysine specific demethylase 1” (Bioorg Med Chem Lett, 2017).
pIC50, pKd: −log10 of the molar value.

Experiments:
[1] = target: T1, Lysine-specific histone demethylase 1A (Homo sapiens, UniProt O60341)
Description: Inhibition of recombinant human N-terminal truncated LSD1 (151 to 852 residues) expressed in Escherichia coli using histone H3(1-21)K4(Me1) biotin peptide as substrate measured after 30 mins by TR-FRET assay

[2] = target: T1, Lysine-specific histone demethylase 1A; assay: Binding affinity to LSD1 (unknown origin) by SPR analysis
[3] = target: Voltage-gated inwardly rectifying potassium channel KCNH2 (Homo sapiens, UniProt Q12809); assay: Inhibition of human ERG expressed in CHO cells by Ionworks electrophysiology method; format: cell-based
Chain of Voltage-gated inwardly rectifying potassium channel KCNH2 (Q12809 whole entry): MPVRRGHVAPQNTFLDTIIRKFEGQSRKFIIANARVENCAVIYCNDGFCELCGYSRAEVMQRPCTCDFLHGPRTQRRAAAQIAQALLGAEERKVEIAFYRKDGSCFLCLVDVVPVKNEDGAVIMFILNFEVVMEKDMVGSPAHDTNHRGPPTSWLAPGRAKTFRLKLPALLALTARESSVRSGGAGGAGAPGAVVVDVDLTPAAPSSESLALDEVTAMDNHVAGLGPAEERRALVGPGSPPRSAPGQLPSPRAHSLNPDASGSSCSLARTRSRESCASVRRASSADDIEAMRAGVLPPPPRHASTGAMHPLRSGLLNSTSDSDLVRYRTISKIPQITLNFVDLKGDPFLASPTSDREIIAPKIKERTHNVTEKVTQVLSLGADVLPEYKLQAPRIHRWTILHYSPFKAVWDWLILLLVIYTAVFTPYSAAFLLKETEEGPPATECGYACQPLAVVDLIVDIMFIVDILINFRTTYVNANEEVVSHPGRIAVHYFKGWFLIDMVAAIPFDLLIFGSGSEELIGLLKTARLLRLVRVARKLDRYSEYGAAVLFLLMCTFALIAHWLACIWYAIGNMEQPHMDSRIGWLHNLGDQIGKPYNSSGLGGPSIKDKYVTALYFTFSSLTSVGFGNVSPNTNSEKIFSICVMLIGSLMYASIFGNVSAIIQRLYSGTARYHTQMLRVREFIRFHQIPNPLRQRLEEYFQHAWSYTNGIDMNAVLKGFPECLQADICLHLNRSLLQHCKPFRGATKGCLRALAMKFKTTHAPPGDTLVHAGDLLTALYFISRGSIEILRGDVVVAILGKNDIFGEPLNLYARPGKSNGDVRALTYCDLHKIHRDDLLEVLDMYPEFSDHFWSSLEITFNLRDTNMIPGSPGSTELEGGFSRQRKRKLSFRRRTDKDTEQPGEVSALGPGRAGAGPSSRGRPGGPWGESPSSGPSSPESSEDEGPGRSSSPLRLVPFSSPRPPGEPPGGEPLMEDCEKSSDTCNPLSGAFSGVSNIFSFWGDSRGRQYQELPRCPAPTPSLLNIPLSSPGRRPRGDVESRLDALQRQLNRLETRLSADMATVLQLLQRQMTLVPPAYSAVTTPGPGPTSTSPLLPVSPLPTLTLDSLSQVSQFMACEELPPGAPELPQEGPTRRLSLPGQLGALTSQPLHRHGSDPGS

[4] = target: T2, Amine oxidase [flavin-containing] B (Homo sapiens, UniProt P27338); assay: Inhibition of recombinant human MAO-B expressed in supersomes using kynuramine as substrate by LC-MS/MS analysis
T2 sequence (P27338 whole entry): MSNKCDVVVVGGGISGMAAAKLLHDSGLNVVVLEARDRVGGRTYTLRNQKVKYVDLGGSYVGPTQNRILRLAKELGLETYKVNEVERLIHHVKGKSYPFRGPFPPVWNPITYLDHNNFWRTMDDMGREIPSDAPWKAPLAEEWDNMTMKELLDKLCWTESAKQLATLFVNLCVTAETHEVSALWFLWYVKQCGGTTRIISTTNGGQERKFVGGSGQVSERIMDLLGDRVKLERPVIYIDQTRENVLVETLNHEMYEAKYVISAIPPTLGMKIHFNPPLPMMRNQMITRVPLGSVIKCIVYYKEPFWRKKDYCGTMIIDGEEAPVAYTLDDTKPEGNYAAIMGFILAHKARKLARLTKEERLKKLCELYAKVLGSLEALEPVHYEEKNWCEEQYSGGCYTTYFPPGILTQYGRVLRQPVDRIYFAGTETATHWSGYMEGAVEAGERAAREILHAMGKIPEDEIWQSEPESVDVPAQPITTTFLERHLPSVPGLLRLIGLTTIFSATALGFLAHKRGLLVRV

[5] = target: T3, Amine oxidase [flavin-containing] A (Homo sapiens, UniProt P21397); assay: Inhibition of recombinant human MAO-A expressed in supersomes using kynuramine as substrate by LC-MS/MS analysis
T3 sequence (P21397 whole entry): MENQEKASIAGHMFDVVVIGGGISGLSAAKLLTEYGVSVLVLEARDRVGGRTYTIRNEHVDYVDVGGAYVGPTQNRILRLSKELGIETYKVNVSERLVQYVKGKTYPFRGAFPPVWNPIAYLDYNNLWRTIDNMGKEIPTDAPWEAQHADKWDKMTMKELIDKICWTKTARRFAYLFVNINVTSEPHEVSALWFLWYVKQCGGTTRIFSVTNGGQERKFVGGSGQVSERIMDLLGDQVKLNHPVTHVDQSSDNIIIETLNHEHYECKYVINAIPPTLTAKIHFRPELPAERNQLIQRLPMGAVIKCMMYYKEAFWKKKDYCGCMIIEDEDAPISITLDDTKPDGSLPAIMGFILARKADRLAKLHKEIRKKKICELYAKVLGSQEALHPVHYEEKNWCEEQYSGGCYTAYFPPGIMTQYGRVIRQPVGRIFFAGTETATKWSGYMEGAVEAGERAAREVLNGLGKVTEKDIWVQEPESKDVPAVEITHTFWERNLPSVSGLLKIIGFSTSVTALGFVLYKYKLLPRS

| SMILES | pIC50 [1] | pKd [2] | pIC50 [3] | pIC50 [4] | pIC50 [5] |
| --- | --- | --- | --- | --- | --- |
| Cc1ccc(-c2ncc(OC[C@@H]3CCNC3)cc2-c2ccc(C#N)cc2)cc1 | 7.39 | 8.10 | 5.49 | – | – |
| Cc1ccc([C@@H]2CN(C(=O)[C@H]3CC[C@H](CN)CC3)C[C@H]2c2ccc(C#N)cc2)cc1 | – | – | 4.92 | < 4.60 | < 4.60 |
